Data taken from patent US7157481B2 (priority 1997, dated 2007).

Experiments:
[1] = tested on: larvae of the mustard beetle (Phaedon cochleariae); test: Phaedon Larvae Test; format: in vivo; settings: cabbage leaves dipped, 0.1 % by weight active compound; after 7 days
Protocol: (§1) To produce a suitable preparation of active compound, 1 part by weight of active compound is mixed with the stated amounts of solvent and emulsifier, and the concentrate is diluted with water to the desired concentration.
Cabbage leaves (Brassica oleracea) are treated by being dipped into the preparation of active compound of the desired concentration and populated with larvae of the mustard beetle (Phaedon cochleariae) while the leaves are still moist.
After 7 days, the kill is determined and expressed in per cent. An efficacy of 100% means that all beetle larvae have been killed, while an efficacy of 0% means that no beetle larvae have been killed.

[2] = tested on: caterpillars of the diamond-back moth (Plutella xylostella); test: Plutella Test; format: in vivo; settings: cabbage leaves dipped, 0.1 % by weight active compound; after 7 days
Protocol: as §1
Cabbage leaves (Brassica oleracea) are treated by being dipped into the preparation of active compound of the desired concentration and populated with caterpillars of the diamond-back moth (Plutella xylostella) while the leaves are still moist.
After 7 days, the kill is determined and expressed in per cent. An efficacy of 100% means that all caterpillars have been killed, while an efficacy of 0% means that none of the caterpillars have been killed.

[3] = log P determination by HPLC (EEC Directive 79/831 Annex V. A8, gradient method); format: physicochemical; settings: acetonitrile/0.1% aqueous phosphoric acid
Venturia inaequalis = test: Venturia Test (Apple)/protective; format: in vivo; settings: young apple plants sprayed at 100 g/ha, protective; evaluation 12 days after inoculation
Protocol: Venturia Test (Apple)/protective
as §1
To test for protective activity, young plants are sprayed with the preparation of active compound at the stated application rate. After the spray coating has dried on, the plants are inoculated with an aqueous conidia suspension of the causative organism of apple scab Venturia inaequalis and then remain in an incubation cabin at approximately 20° C. and 100% relative atmospheric humidity for 1 day.
The plants are then placed in a greenhouse at approximately 21° C. and a relative atmospheric humidity of approximately 90%.
Evaluation is carried out 12 days after the inoculation. 0% means an efficacy which corresponds to that of the control, while an efficacy of 100% means that no infection is observed.

Leptosphaeria nodorum = Leptosphaeria nodorum Test (Wheat)/protective; format: in vivo; settings: young wheat plants sprayed at 250 g/ha, protective; evaluation 10 days after inoculation
Protocol: Leptosphaeria nodorum Test (Wheat)/protective
as §1
To test for protective activity, young plants are sprayed with the preparation of active compound at the stated application rate. After the spray coating has dried on, the plants are sprayed with a spore suspension of Leptosphaeria nodorum. The plants remain in an incubation cabin at 20° C. and 100% relative atmospheric humidity for 48 hours.
The plants are then placed in a greenhouse at a temperature of approximately 15° C. and a relative atmospheric humidity of 80%.
Evaluation is carried out 10 days after the inoculation. 0% means an efficacy which corresponds to that of the control, while an efficacy of 100% means that no infection is observed.

Compound | melting point | Kill in % after 7 d [2] [%] | also measured
O=C(NCCOS(=O)OCCNC(=O)c1snc(Cl)c1Cl)c1snc(Cl)c1Cl | 70 to 75 °C | – | –
CC(C)(C)CSCc1ccc(NC(=O)c2snc(Cl)c2Cl)cc1 | 91 to 92 °C | – | –
CCC(CC)c1ccc(NC(=O)c2snc(Cl)c2Cl)cc1 | 98 to 99 °C | – | –
CN(C=O)CNC(=O)c1snc(Cl)c1Cl | 87 to 88 °C | – | –
Cc1ccc(NC(=O)c2snc(Cl)c2Cl)c(C)c1 | 171 to 172 °C | – | –
CC(C)(C)c1ccc(NC(=O)c2snc(Cl)c2Cl)cc1 [Example 3] | 148 to 149 °C | – | Kill in % after 7 d [1]: 100%
CC(C)(C)c1ccc(CCNC(=O)c2snc(Cl)c2Cl)cc1 [Example 4] | – | 100 | chromatographic logP [3]: 4.81
O=C(NCCc1cccc(Oc2ccc(Cl)cc2)c1)c1snc(Cl)c1Cl [Example 6] | – | – | Efficacy in % (Venturia inaequalis): 96%; chromatographic logP [3]: 4.79
CCN(CC)Cc1ccc(CNC(=O)c2snc(Cl)c2Cl)cc1 [Example 14] | – | 100 | chromatographic logP [3]: 1.39
CCC(C)c1ccc(NC(=O)c2snc(Cl)c2Cl)cc1 (stereo not drawn) [Example 16] | 83 to 85 °C | – | Efficacy in % (Leptosphaeria nodorum): 81%
O=C(Nc1ccccc1C1CCCCCC1)c1snc(Cl)c1Cl [Example 20] | 122 to 125 °C | 100 | –
O=C(Nc1ccccc1-c1ccccc1)c1snc(Cl)c1Cl [Example 21] | 83 to 84 °C (dec.) | 100 | –
O=C(NCCc1ccc(-c2ccc(Cl)cc2)cc1)c1snc(Cl)c1Cl [Example 23] | 135 to 136 °C | 100 | –
